Assay results reported in patent US7897637B2, “Methods of using flavonoids to enhance memory” (The Salk Institute for Biological Studies, priority 2006, dated 2011).
“Also recorded” adds a separate entry of the source. Where two headings read alike, the source gives them in different places.

Columns and labels:
[1] = system: HT22 cells; test: Protection of HT22 cells from oxidative glutamate toxicity (MTT assay); format: cell-based, mouse; conditions: for EC50 / Emax: 5 mM glutamate, MTT assay; for EC50: read-out: EC50 (μM), protection from oxidative-stress induced death; for Emax: HT-22, read-out: Maximal Efficacy, protection from oxidative-stress induced death; for effect of higher levels of BSO on protection: 5 mM glutamate + 1 mM BSO
Excerpt: Fisetin is effective at protecting nerve cells from oxidative stress-induced death (Ishige et al., Free Radic. Biol. Med., 30:433-446, 2001). This Example illustrates the structure-activity relationship between fisetin derivatives and neuroprotection in a model of oxidative glutamate toxicity using mouse HT22 cells. This pathway of programmed cell death is initiated by the addition of glutamate to the extracellular medium. Glutamate inhibits the uptake of cystine which is required for glutathione (GSH) biosynthesis, resulting in the depletion of GSH in neurons (for review see Tan et al., Curr. Top. Med. Chem., 1:497-506, 2001). Subsequently, this decrease in cellular GSH results in the production of reactive oxygen species (ROS) by mitochondria. The ROS accumulation then causes Ca^+2 influx from the extracellular medium which leads to cell death.
HT22 cells were untreated (Ct) or treated with 10 μM fisetin, 25 μM 3,3′-DHF, 25 μM 3,4′-DHF, 2.5 μM 3′,4′-DHF, 2.5 μM 3,3′,4′-THF 25 μM 3,7,3′-THF, 25 μM 3,7,4′-THF or 10 μM 7,3′,4′-THF in the presence of 5 mM glutamate±50 μM PD98059. Twenty four (24) hours later cell survival was measured by the MTT assay.
HT22 cells were untreated (Ct) or treated with 10 μM fisetin, 25 μM 3,3′-DHF. […] Protection by all of the other flavonoids was unaffected by BSO.
Cell viability was determined by a modified version of the 3-(4,5-dimethylthiazol-2-yl)-2,5-diphenyl tetrazolium bromide (MTT) assay based on the standard procedure (Hansen et al., J. Immunol. Meth., 119:203-10, 1989). Briefly, cells were seeded onto 96-well microtiter plates at a density of 5×10^3 cells per well. The next day, the medium was replaced with DMEM supplemented with 7.5% DFCS and the cells were treated with the different flavonoids alone or in the presence of 5 mM glutamate. Twenty four hours later, the medium in each well was aspirated and replaced with fresh medium containing 2.5 μg/ml MTT. After 4 hours of incubation at 37° C., cells were solubilized with 100 μl of a solution containing 50% dimethylformamide and 20% SDS (pH 4.7). The absorbance at 570 nm was measured on the following day with a microplate reader (Molecular Devices). Results obtained from the MTT assay correlated directly with the extent of cell death as confirmed visually. Controls employing wells without cells were used to determine the effects of the agents upon the assay chemistry.

[2] = system: Male C57Bl/6J mice; test: Object recognition task; format: in vivo; conditions: 60 minutes prior to training, vs vehicle
Protocol: The effect of fisetin, 3,3′,4′-THF, and apigenin (5,7,4′-THF) on memory was tested in mice using an object recognition task (Ennaceur and Delacour, Behav. Brain Res., 31:47-59, 1988). Among the alternatives available for testing memory, this assay has proven very effective for measuring CREB-dependent functions (Prickaerts et al., Neurosci., 113:351-61, 2002; Bourtchouladze et al., Proc. Natl. Acad. Sci. USA, 100:10518-22, 2003). In this test, mice are presented with two identical objects during the training period which they explore for a fixed time period. To test for memory, mice are presented one day later with two different objects, one of which was presented previously during the training and is thus familiar to the mice, and the other that is novel. The better a mouse remembers the familiar object, the more time it will spend exploring the novel object. To test the effects of fisetin, 3,3′,4′-THF, or apigenin (5,7,4′-THF) in this memory task, the respective compound was administered orally to the mice before the start of the training period. Rolipram, a phosphodiesterase inhibitor that potentiates memory in this assay (Bourtchouladze et al., Proc. Natl. Acad. Sci. USA, 100:10518-22, 2003), requires intraperitoneal injection and was used as a positive control.
Male C57Bl/6J mice (Jackson Laboratories) were used and the testing was done by PsychoGenics (Tarrytown, N.Y.). All mice were acclimated to the colony room for at least 2 weeks prior to testing and were tested at an average age of 8 weeks. Mice were randomly assigned across treatment groups with 10 mice in each group. For each dose tested, a 10× solution of fisetin was prepared in 95% ethanol and then diluted with 4 volumes polyethylene glycol 660 hydroxystearate (Solut HS15 from BASF) and 5 volumes phosphate buffered saline. The vehicle was contained the identical ratios of ethanol, Solut HS15 and phosphate buffered saline. All were administered orally 60 minutes prior to training at a volume of 10 ml/kg body weight. Rolipram was dissolved in 10% DMSO and administered intraperitoneally 20 minutes prior to training. The test was performed as previously described by Bourtchouladze et al. (Proc. Natl. Acad. Sci. USA, 100:10518-22, 2003). Briefly, on Day 1 mice were habituated to a circular open field arena for one hour in cage groups of four. Twenty-four (24) hours later, individual mice were placed back in the same arena which now contained two identical objects for a 15 minutes training trial. […] Each animal's test trial was recorded and the first 10 minutes of each session were scored. […] Data were analyzed by a one-way ANOVA followed by post-hoc comparisons with Fisher's test. […]

[3] = system: GSH; test: Total cellular GSH levels in HT22 cells; format: cell-based, mouse; conditions: 8 hours; for GSH levels in the presence of oxidative stress: 5 mM glutamate
Protocol: The effects of fisetin derivatives on cellular GSH levels was then determined. HT22 cells were untreated (Ct) or treated with 10 μM fisetin, 25 μM 3,3′-DHF, 25 μM 3,4′-DHF, 2.5 μM 3′,4′-DHF, 2.5 μM 3,3′,4′-THF, 25 μM 3,7,3′-THF, 25 μM 3,7,4′-THF or 10 μM 7,3′,4′-THF alone or in the presence of 5 mM glutamate. After 8 hours cellular levels of total GSH were determined as described in Example 4. The GSH level of the control sample (31.5±10 nmoles/mg protein) was taken as 100%.
Total intracellular GSH/GSSG was determined using whole cell lysates from untreated, glutamate treated, flavonoid treated and glutamate plus flavonoid treated cells as described (Maher and Hanneken, Invest. Opthalmol. Vis. Sci., 46:749-57, 2005, herein incorporated by reference as to the method) and normalized to total cellular protein.

[4] = Mus musculus, HT-22, 24 h, HT22 cells, 24 hours
[5] = Mus musculus, HT22 cells, 24 hours

Row | Structure (SMILES) | effect of low levels of BSO on protection ([1]; 5 mM glutamate + 50 μM BSO, 24 hours, MTT) | EC50 ([1]; HT22 cells, 24 hours) [µM] | protection from oxidative stress-induced death ([1]; HT22 cells, glutamate) | EC50 [1, 4] [µM] | Emax [1, 5] [%] | protection from oxidative stress-induced death ([1]; at 2.5 μM) [%] | object recognition ([2]; 25 mg/kg oral) | GSH levels in the presence of oxidative stress [3] | effect of higher levels of BSO on protection ([1]; 24 hours, MTT) | basal levels of GSH ([3]; flavonoid alone) | object recognition ([2]; 10 mg/kg oral)
1 | O=c1c(O)c(-c2ccc(O)c(O)c2)oc2ccccc12 [3,3′,4′-THF, 3,3′,4′-trihydroxyflavone] | significantly reduced protection | 0.75 | equal to or more effective than fisetin | 1 | > 90 | > 85 | significantly increased object recognition | able to maintain GSH levels |  |  | 
2 | O=c1cc(-c2ccc(O)c(O)c2)oc2ccccc12 [3′,4′-DHF, 3′,4′-dihydroxyflavone] |  |  | more effective than fisetin; also recorded: equal to or more effective than fisetin | 0.9 | > 90 |  |  | could not maintain GSH levels | reduced protection | raised the basal levels of GSH | 
3 | O=c1c(O)c(-c2ccc(O)c(O)c2)oc2cc(O)ccc12 [fisetin, 3,3′,4′,7-tetrahydroxyflavone] |  |  |  | 5 | > 90 |  | significant effects |  | reduced protection |  | significant effects
